Experimental data taken from patent US12378287B2 (priority 2019, dated 2025).

Tests used:
GII.17 VLP = assay type: binding, norovirus; settings: 100 μM peptide on SA chip; for Kd: GII.17 VLP 1, 0.1, 0.01, 0.001 mg/mL, KD calculated from ka and kd; for ka / kd: GII.17 VLP; for ka: association 90 sec; for kd: dissociation 60 sec
Protocol: (§1) The apparatus used was BLItz™ (manufactured by ForteBio). The tip of SA chip (manufactured by ForteBio) was kept in contact with purified water for 1 minute for hydration and was then kept in contact with a 1% BSA aqueous solution for 1 hour for blocking. The SA chip subjected to blocking treatment was set to the measuring unit of the BLItz™ main body, and measurement was performed according to the program shown in Table 16. The peptides of SEQ ID NOs: 103, 167, 205, 263, 283, 288, and 302 were used, and the concentration was adjusted to 100 μM. The concentrations of each of the GII.3 and GII.17 VLPs were adjusted to 1, 0.1, 0.01, and 0.001 mg/mL. The measurement data were analyzed using the attached software, and the KD value was calculated based on the Ka and Kd values.

GII.3 VLP = assay type: binding, norovirus; settings: 100 μM peptide on SA chip; for Kd: GII.3 VLP 1, 0.1, 0.01, 0.001 mg/mL, KD calculated from ka and kd; for ka / kd: GII.3 VLP; for ka: association 90 sec; for kd: dissociation 60 sec
Protocol: as §1

ANYRWSRSIK [No.263]
Kd (GII.17 VLP): 19.1 nM
ka (GII.17 VLP): 140000 M⁻¹ s⁻¹
kd (GII.17 VLP): 0.00865 s⁻¹
Kd (GII.3 VLP): 57.5 nM
ka (GII.3 VLP): 851000 M⁻¹ s⁻¹
kd (GII.3 VLP): 0.049 s⁻¹

CKARSARGVS [No.288]
Kd (GII.17 VLP): 12 nM
ka (GII.17 VLP): 620000 M⁻¹ s⁻¹
kd (GII.17 VLP): 0.00747 s⁻¹
Kd (GII.3 VLP): 6.86 nM
ka (GII.3 VLP): 2.09e+06 M⁻¹ s⁻¹
kd (GII.3 VLP): 0.0143 s⁻¹

FVWRRRAGLY [No.167]
Kd (GII.17 VLP): 0.696 nM
ka (GII.17 VLP): 1.59e+06 M⁻¹ s⁻¹
kd (GII.17 VLP): 0.00111 s⁻¹
Kd (GII.3 VLP): 1.39 nM
ka (GII.3 VLP): 3.14e+06 M⁻¹ s⁻¹
kd (GII.3 VLP): 0.00435 s⁻¹

FVWSRRTGLY [No.205]
Kd (GII.17 VLP): 109 nM
ka (GII.17 VLP): 169000 M⁻¹ s⁻¹
kd (GII.17 VLP): 0.0184 s⁻¹
Kd (GII.3 VLP): 31.6 nM
ka (GII.3 VLP): 1.03e+06 M⁻¹ s⁻¹
kd (GII.3 VLP): 0.001 s⁻¹

RFLVPVVKVM [No.103]
Kd (GII.17 VLP): 8.13 nM
ka (GII.17 VLP): 1.38e+06 M⁻¹ s⁻¹
kd (GII.17 VLP): 0.0112 s⁻¹
Kd (GII.3 VLP): 8.07 nM
ka (GII.3 VLP): 2.1e+06 M⁻¹ s⁻¹
kd (GII.3 VLP): 0.017 s⁻¹

RSMSLHVSMT [No.283]
Kd (GII.17 VLP): 1.39 nM
ka (GII.17 VLP): 994000 M⁻¹ s⁻¹
kd (GII.17 VLP): 0.000138 s⁻¹
Kd (GII.3 VLP): 0.909 nM
ka (GII.3 VLP): 7.86e+06 M⁻¹ s⁻¹
kd (GII.3 VLP): 0.00715 s⁻¹

VWWGRRISRF [No.302]
Kd (GII.17 VLP): 28.4 nM
ka (GII.17 VLP): 2.28e+06 M⁻¹ s⁻¹
kd (GII.17 VLP): 0.0648 s⁻¹
